Here are results for one molecule from patent US20220288091A1, “Method for Improving Insulin Sensitivity” (priority 2019, published 2022).

“And” between values parts separate entries of the source, which are not always exact repeats. Equal values may be shown once.

This test concerns overweight or obese subjects with prediabetes or mild type 2 diabetes. Briefly: Fasting plasma glucose, insulin and fasting surrogate indices (HOMA-IR, QUICKI, Adipo-IR) in placebo-controlled crossover trial. The format is in vivo, human. To be noted: 50 mg every 6 hours for 9 days, n=16. The method, then: A randomized, placebo-controlled, double-blind crossover trial was conducted to evaluate the use of an anti-glucocorticoid as a means for ameliorating insulin resistance. Mifepristone, 50 mg, or a placebo, was administered every six hours for nine days to sixteen overweight or obese (BMI 25-37 kg/m^2) subjects (seven women). Participant ages ranged from 48 to 64 years. Ten had prediabetes and six had mild diabetes type II (HgbA1c less than 7%). Treatment of the glucose disorder with diet or a stable dose of metformin (used by two patients) was maintained for three (3) months before the study. The interventions were nine days of mifepristone or placebo treatment followed by a six (6) to eight (8) week wash out and cross over to the other arm. At baseline and at the end of each treatment period, parameters of insulin sensitivity were assessed by a frequently sampled intravenous glucose tolerance test (FSIVGTT) and an oral glucose tolerance test (OGTT). A whole body glucose disposal index of insulin sensitivity (SI) was derived using a minimal model analysis. Adipose tissue-SI, which reflects insulin-induced free fatty acid suppression, was estimated by the log-linear slope of free fatty acid levels and the AUC of insulin during the FSIVGTT. Matsuda index, oral glucose insulin sensitivity index (OGIS, ml/min/m^2), and hepatic insulin resistance index (HIRI, mg/dl×microU/ml×10^5) were derived from OGTT. Adipo-IR, a surrogate measure of adipocyte insulin resistance, was calculated by multiplying fasting concentrations of free fatty acids and insulin (mmol×pmol/L). Comparison of various post-treatment parameters was performed using crossover ANOVA. This analysis takes into account specific treatment arm, treatment order, and treatment effects. Thus, carryover effects were explicitly tested for in the crossover study.
The inventors conducted a random, triple-blinded, placebo-controlled, cross-over study using mifepristone (50 mg every 6 hours, 200 mg total daily dose) in overweight/obese individuals (n=16, 44% female) with pre-DM (pre-diabetes mellitus) or mild type 2 diabetes mellitus (glycated hemoglobin A1C […]). Mifepristone or placebo was administered for 9 days followed by a washout period of 6 to 8 weeks, and then crossover to the other treatment arm. At baseline and after each treatment period, the oral glucose tolerance test and frequently sampled intravenous glucose tolerance test were performed. Insulin sensitivity (SI) was measured using Matsuda index and oral glucose insulin sensitivity index (OGISI). Hepatic SI was assessed using hepatic insulin resistance index (HIRI), and adipose tissue SI was assessed using adipo-IR adipose tissue insulin sensitivity index (ATISI).
The study in this example used a prospective, randomized, double-blind placebo-controlled, cross-over design in which eligible subjects were randomized in blocks of six to the initial arm of the study: either placebo or mifepristone (50 mg tablets every 6 hours) for 9 days. This was followed by a 6-8 week washout period. Subjects were then crossed over to the other treatment arm for an additional 9 days. The study was conducted at the National Institutes of Health (NIH) Clinical Center, Bethesda, Md., U.S.
To reduce potential variability associated with estrogen in premenopausal women, testing was performed in the early follicular phase (days 1-7 of menstrual cycle). Baseline height and weight were measured after an overnight fast. […]

For the molecule `CC#C[C@]1(O)CC[C@H]2[C@@H]3CCC4=CC(=O)CCC4=C3[C@@H](c3ccc(N(C)C)cc3)C[C@@]21C` [Mifepristone, 11beta-[p-(dimethylamino)phenyl]-17alpha-(1-propynl)estra-4,9-dien-17beta-ol-3-one], for the setting “post-treatment mean±SD”, the “Fasting Glucose” value was determined as 100.4 ± 15.3 mg/dL; the “Fasting Insulin” value was 95.7 ± 76.1 pmol/L and 95.6 ± 76.1 pmol/L; the HOMA-IR is 3.58 ± 3.27; the QUICKI is 0.332 ± 0.034. Further, the “Adipose-tissue Insulin Resistance Index (Adipo-IR)” value (fasting FFA × fasting insulin, mean±SD) was found to be 50.0±46.0 mmol×pmol/L.
